The text below walks through data of patent US10548897B2, “KSR antagonists” (Icahn School of Medicine at Mount Sinai, priority 2015, dated 2020).

Assay [1] concerns the target KSR2 (purified hKSR2-rMEK1 complex) (Homo sapiens (Human), UniProt Q6VAB6). Put plainly: ATP-biotin probe labeling and inhibitor competition (KSR2 band). Format: binding. The settings on record: for KSR binding (assessed): panel of known kinase inhibitors; for competition of ATPbiotin probe labeling in KSR2:MEK1 complexes (in words): screen / SAR statements. From the text: Human KSR2 (residues 634-950) and rabbit MEK1 (residues 1 to 393) were codon optimized for insect cell expression by DNA 2.0. Inserts were expressed with TEV cleavable 6×-His tags from the pFastBac Dual expression vector. Bacmids were used to transfect adherent SF21 cells and viruses were subsequently titred to high levels through serial infections of SF21 cells. […] Briefly, following infections, cells were harvested, lysed, and affinity purified using Co2+ sepharose resin (GoldBio). […] Dialysis retentate was diluted 3 fold and then applied to a Resourse S ion exchange column. […] One-to-one hKSR2-MEK1 complexes were captured in late fractions from an increasing salt gradient. Complexes were later applied to a 120 mL Superdex 200 gel filtration column and finally concentrated to approximately 10 mg/mL before flash freezing for biochemical assays.
The ATP-biotin assay was performed in buffer containing 25 mM Tris pH 7.5, 150 mM NaCl, 10 mM MgCl2, and 2% DMSO. […] In particular, hKSR2-rMEK1 was pre-incubated with 20 μM of the indicated compounds for 15 minutes. Then, ATP-biotin (Pierce Cat. #88310) was added to a final concentration of 2 μM. Reactions were incubated at room temperature for 5 minutes before being stopped by the addition of 6×SDS loading dye. […] Enhanced chemiluminescence signals corresponding to labeling on KSR2 and MEK1 were visualized and quantified using the Biodoc system (Biorad). Relative signals of Streptavidin HRP on bands corresponding to KSR2 and MEK1 in the presence of compounds relative to DMSO controls were used to determine ‘Percent Inhibition of ATP Probe Labeling’.
For the ATP^biotin labeling competition screen, samples were applied to a 4-20% Tris-HCl gel, separated, and then transferred to a nitrocellulose membrane. The membrane was blocked with 5% bovine serum albumin diluted in TBS-T for 30 minutes and subsequently probed with the Pierce™ High Sensitivity Streptavidin-HRP. After several washes, the membranes were visualized using enhanced chemiluminescence on a Biodoc (Biorad).

Assay [2] relates to MAPK pathway readouts (pERK, pMEK, pRSK) in A375 and HCT-116. Nature of the assay: Western blot of MAPK pathway readouts, treatment with trametinib combinations. Format: cell-based. The settings on record: for MAPK pathway inhibition (pERK, pMEK, pRSK) in combination with trametinib: combined with trametinib, A375 and HCT-116. (In general: Immunoblotting shows a protein as a band on a membrane.)

For assay [3], the system named is KSR-stimulated MEK and ERK phosphorylation. Put plainly: Cell-based reconstitution system monitoring KSR-driven MAPK signaling. Conditions: for suppression of KSR-stimulated MEK and ERK phosphorylation: KSR expression-dependent MAPK signaling. From the text:
To assess the biological function of lead compounds as Ras-MAPK pathway antagonists, a simplified cell-based reconstitution system was developed to directly monitor KSR-driven MAPK signaling. […] Based on similarity in phenotype and direct-binding activity, Compound 21 was identified as a small molecule mimic of KSR alleles that suppress oncogenic Ras mutations.

For a further assay, the target named is KSR2:B-RAF^F667E dimers (Homo sapiens, UniProt Q6VAB6). Nature of the assay: Biolayer inferometry of KSR2:B-RAF dimerization (Octet Red96). Format: binding. The settings on record: compound at 25 μM. The procedure:
B-RAF and B-RAF mutants (F667E+/−R509H) were immobilized on sensor-heads and KSR2:MEK1 or MEK1 assembly was monitored. Curves indicate dose ranges of KSR2:MEK1 or MEK1 from 625 nM to 10 μM. In all plots, association occurred from 0 to 660 seconds, and dissociation was monitored thereafter up to 1500 seconds. Compound 21 and trametinib were added in the presence of KSR2:MEK1 at a concentration of 25 μM each.
To directly investigate the impact of Compound 21 on KSR2:B-RAF dimerization, bio-layer inferometry (BLI) was utilized to monitor real-time association and dissociation of KSR2:MEK1 or free MEK1 to a sensor tethered with immobilized B-RAF.
To specifically monitor KSR2:B-RAF dimerization relative to other possible interactions, a mutation in B-RAF^F667E was identified that eliminates binding to free MEK but not KSR2-MEK1 complexes, as shown in FIGS. 7C-7D. […]
Interactions between purified B-RAF and the KSR2:MEK1 complex were measured using biolayer inferometry on the Octet Red96 system (Forte Bio). […] Association and dissociation was monitored over 660 and 840 seconds, respectively. Data sets were normalized and analysed using global fit binding models (Fortebio software). […]

Assay [4] concerns the target MEK1 (purified hKSR2-rMEK1 complex) (Oryctolagus cuniculus (Rabbit), UniProt P29678). Put plainly: ATP-biotin probe labeling competition (MEK1 band). Format: binding. The settings on record: competition with free ATP, purified KSR2:MEK1; read-out: free ATP IC50, ATPbiotin labeling of MEK1. An excerpt: Human KSR2 (residues 634-950) and rabbit MEK1 (residues 1 to 393) were codon optimized for insect cell expression by DNA 2.0. Inserts were expressed with TEV cleavable 6×-His tags from the pFastBac Dual expression vector. Bacmids were used to transfect adherent SF21 cells and viruses were subsequently titred to high levels through serial infections of SF21 cells. […] Briefly, following infections, cells were harvested, lysed, and affinity purified using Co2+ sepharose resin (GoldBio). […] Dialysis retentate was diluted 3 fold and then applied to a Resourse S ion exchange column. This step removed excess MEK1, which binds weakly to the S column. One-to-one hKSR2-MEK1 complexes were captured in late fractions from an increasing salt gradient. Complexes were later applied to a 120 mL Superdex 200 gel filtration column and finally concentrated to approximately 10 mg/mL before flash freezing for biochemical assays.
The ATP-biotin assay was performed in buffer containing 25 mM Tris pH 7.5, 150 mM NaCl, 10 mM MgCl2, and 2% DMSO. Purified hKSR2-rMEK1 was assayed at 0.5 μM. In particular, hKSR2-rMEK1 was pre-incubated with 20 μM of the indicated compounds for 15 minutes. Then, ATP-biotin (Pierce Cat. #88310) was added to a final concentration of 2 μM. […] Enhanced chemiluminescence signals corresponding to labeling on KSR2 and MEK1 were visualized and quantified using the Biodoc system (Biorad). […]

The mark [5] stands for this setting: ATPbiotin probe labeling competition, 0.1 μM KSR2:MEK1, 27 nM to 20 μM compound, triplicate, read-out: KSR2 IC50.

Counter-ions that a name gives are not always drawn. Like-named read-outs stand apart in the source and are kept apart here. Some results are limits rather than exact numbers.

KSR2 (purified hKSR2-rMEK1 complex), sequence (Q6VAB6 634-950): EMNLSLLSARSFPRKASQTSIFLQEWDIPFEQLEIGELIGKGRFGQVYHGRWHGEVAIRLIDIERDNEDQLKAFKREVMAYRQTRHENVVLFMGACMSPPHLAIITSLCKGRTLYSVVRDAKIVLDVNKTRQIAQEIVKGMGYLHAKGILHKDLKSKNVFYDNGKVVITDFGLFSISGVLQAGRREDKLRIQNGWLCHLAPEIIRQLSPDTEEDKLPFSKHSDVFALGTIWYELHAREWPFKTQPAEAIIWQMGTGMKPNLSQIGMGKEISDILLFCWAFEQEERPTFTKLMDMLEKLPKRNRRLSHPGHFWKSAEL
KSR2 (purified hKSR2-rMEK1 complex), sequence (P29678 whole entry partner, the tested form may be a part): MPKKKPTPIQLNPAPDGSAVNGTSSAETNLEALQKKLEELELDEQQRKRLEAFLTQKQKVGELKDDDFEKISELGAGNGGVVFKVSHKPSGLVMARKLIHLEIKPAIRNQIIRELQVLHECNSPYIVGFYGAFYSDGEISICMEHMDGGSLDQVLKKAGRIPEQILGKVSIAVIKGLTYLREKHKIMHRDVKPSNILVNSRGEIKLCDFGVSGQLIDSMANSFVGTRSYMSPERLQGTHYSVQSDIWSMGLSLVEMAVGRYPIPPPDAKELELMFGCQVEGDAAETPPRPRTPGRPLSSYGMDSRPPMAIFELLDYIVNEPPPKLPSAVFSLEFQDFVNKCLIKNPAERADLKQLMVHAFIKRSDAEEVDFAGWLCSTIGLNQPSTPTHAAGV
MEK1 (purified hKSR2-rMEK1 complex), sequence (P29678 whole entry, the tested form may be a part): as the sequence (P29678 whole entry partner, the tested form may be a part) above
MEK1 (purified hKSR2-rMEK1 complex), sequence (Q6VAB6 634-950 partner): as the sequence (Q6VAB6 634-950) above

As to `Cc1nc(Nc2ncc(C(=O)Nc3c(C)cccc3Cl)s2)cc(N2CCN(CCO)CC2)n1` [dasatinib, reference compound], the “KSR binding (assessed)” value in assay [1] is reported as “non-KSR binders”. Moreover, the “MAPK pathway inhibition (pERK, pMEK, pRSK) in combination with trametinib” value (from here on “MAPK pathway inhibition … with trametinib”) in assay [2] is “not observed”.
Take `COc1cc2ncnc(Nc3ccc(Oc4ccccc4)c(C)c3C)c2cc1OC.Cl` [Compound 50, N-(2,3-Dimethyl-4-phenoxyphenyl)-6,7-dimethoxyquinazolin-4-amine hydrochloride]: in assay [1] (setting [5]), the IC50 is above 10 µM. In assay [3], the “suppression of KSR-stimulated MEK and ERK phosphorylation” value was “inactive”.
`C#Cc1cccc(Nc2ncnc3cc(OCCOC)c(OCCOC)cc23)c1` [erlotinib, reference compound]: the “KSR binding (assessed)” value in assay [1] is listed as “non-KSR binders”. Further, in assay [2], the “MAPK pathway inhibition … with trametinib” value is on record as “not observed”.
In the case of `COc1cc2/c(=N/c3ccc(Oc4ccccc4)cc3)ncn(C)c2cc1OC` [Compound 32, (Z)—N-(6,7-Dimethoxy-1-methylquinazolin-4(1H)-ylidene)-4-phenoxyaniline], in assay [1] (setting [5]), the IC50 is above 10 µM. Besides, the “competition of ATPbiotin probe labeling in KSR2:MEK1 complexes (in words)” value (“competition of ATPbiotin probe labeling” below) in assay [1] was “greatly diminishes KSR2:MEK1 activity”.
`COc1cc2ncnc(Nc3ccc(Oc4ccccc4)cc3)c2cc1OC.Cl` [Compound 2, 6,7-Dimethoxy-N-(4-phenoxyphenyl)quinazolin-4-amine]: the “competition of ATPbiotin probe labeling” value in assay [1] is listed as “competitor of probe labeling”.
For the compound `CC(=O)Nc1cccc(-n2c(=O)n(C3CC3)c(=O)c3c(Nc4ccc(I)cc4F)n(C)c(=O)c(C)c32)c1` [trametinib, reference compound], the “enhancement of KSR2:B-RAF dimerization” value at KSR2:B-RAF^F667E dimers is on record as around 2 fold. Moreover, the “MAPK pathway inhibition (pERK, pMEK, pRSK), single agent” value in assay [2] (alone, compared with Compound 21 + trametinib co-treatment) is given as “did not display the same pathway inhibition”.
In the case of `COc1cc2ncnc(Nc3ccc(O)cc3)c2cc1OC` [Compound 7, 4-((6,7-Dimethoxyquinazolin-4-yl)amino)phenol hydrochloride], the IC50 in assay [1] (setting [5]) is above 10 µM.
On to `CCCS(=O)(=O)Nc1ccc(F)c(C(=O)c2c[nH]c3ncc(Cl)cc23)c1F` [PLX4720], for which the “MAPK pathway inhibition … with trametinib” value in assay [2] is “did not display the same pathway inhibition”.
Consider `COc1ccc(Nc2ncnc3cc(OC)c(OC)cc23)cc1` [Compound 3, 6,7-Dimethoxy-N-(4-methoxyphenyl)quinazolin-4-amine hydrochloride], for which, in assay [1] (setting [5]), the IC50 was above 10 µM.
For the compound `CCN(CC)CCNC(=O)c1c(C)[nH]c(/C=C2\C(=O)Nc3ccc(F)cc32)c1C` [sutent, reference compound], in assay [1], the “KSR binding (assessed)” value was “non-KSR binders”. Also, the “MAPK pathway inhibition … with trametinib” value in assay [2] was “not observed”.
In the case of `CC(C)(C)c1nc(-c2cccc(NS(=O)(=O)c3c(F)cccc3F)c2F)c(-c2ccnc(N)n2)s1` [dabrafenib, reference compound], the “suppression of KSR-stimulated MEK and ERK phosphorylation” value in assay [3] was “active”. Also, the “suppression of KSR-stimulated MAPK signaling with active site mutant KSR^A690F” value in assay [3] (KSR^A690F mutant) is recorded as “active”.
For `CS(=O)(=O)CCNCc1ccc(-c2ccc3ncnc(Nc4ccc(OCc5cccc(F)c5)c(Cl)c4)c3c2)o1` [lapatinib, reference compound], in assay [1], the “KSR binding (assessed)” value is given as “non-KSR binders”. Also, the “MAPK pathway inhibition … with trametinib” value in assay [2] is reported as “not observed”.
With `Nc1ncnc2c1ncn2[C@@H]1O[C@H](COP(=O)(O)OP(=O)(O)OP(=O)(O)O)[C@@H](O)[C@H]1O` [ATP, reference compound], the IC50 was 86 µM in assay [1] (competition with free ATP, purified KSR2:MEK1, read-out: free ATP IC50, ATPbiotin labeling of KSR2) and 133 µM in assay [4].
As for `COc1cc2nccc(Nc3ccc(Oc4ccccc4)cc3)c2cc1OC.Cl` [Compound 11, 6,7-Dimethoxy-N-(4-phenoxyphenyl)quinolin-4-amine hydrochloride], the “competition of ATPbiotin probe labeling” value in assay [1] is “moderately tolerated”.

In general, IC50 refers to the concentration that inhibits the measured activity by half.
